Reference: patent publication US12077503B2, “Substituted cyclic amides and their use as herbicides” (FMC CORPORATION, priority 2015, dated 2024)

Tests used:
Type in all cases: in vivo
[1] = test system: rice (Oryra sativa); test: Test B flooded paddy test; conditions: Oryza sativa, Flood, 250 g ai/ha; scale of 0 to 100 where 0 is no effect and 100 is complete control; read-out: Rice plant response rating
How it was run: (§1)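 Response scored visually against untreated controls, 0 = no effect and 100 = complete control, 13–15 d after treatment in the greenhouse. Compounds added to paddy water held 3 cm above soil surface. Treatment given at 2-leaf stage.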

[2] = test system: barnyardgrass (Echinochloa crus-galli); test: Test B flooded paddy test; conditions: Echinochloa crus-galli, Flood, 250 g ai/ha; scale of 0 to 100 where 0 is no effect and 100 is complete control; read-out: Barnyardgrass plant response rating
How it was run: as §1

[3] = test system: sedge, umbrella (small-flower umbrella sedge, Cyperus difformis); test: Test B flooded paddy test; conditions: Cyperus difformis, Flood, 250 g ai/ha; scale of 0 to 100 where 0 is no effect and 100 is complete control; read-out: Sedge, Umbrella plant response rating
How it was run: as §1

[4] = test system: ducksalad (Heteranthera limosa); test: Test B flooded paddy test; conditions: Heteranthera limosa, Flood, 250 g ai/ha; scale of 0 to 100 where 0 is no effect and 100 is complete control; read-out: Ducksalad plant response rating
How it was run: as §1

[5] = test system: barnyardgrass (Echinochloa crus-galli); test: Test A preemergence; conditions: Echinochloa crus-galli, pre-emergence, 240 h; for pest or weed control at 125 g/ha: 125 g ai/ha, preemergence, 0 to 100 scale where 0 is no effect and 100 is complete control, read-out: Barnyardgrass plant response rating; for pest or weed control at 500 g/ha: 500 g ai/ha, Preemergence, visual injury vs untreated controls after approximately 10 d, read-out: Barnyardgrass plant response rating (0 to 100 scale where 0 is no effect and 100 is complete control)
How it was run: (§2)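 Treatment is preemergence as a directed soil spray after planting, or postemergence at the one- to two-leaf stage, with test chemical in a non-phytotoxic solvent mixture plus surfactant. Plants stay in the greenhouse about 10 d before visual injury scoring on a 0 to 100 scale versus untreated controls.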

[6] = test system: Kochia (Kochia scoparia); test: Test A preemergence; conditions: Bassia scoparia, pre-emergence, 240 h; for pest or weed control at 125 g/ha: 125 g ai/ha, preemergence, 0 to 100 scale where 0 is no effect and 100 is complete control, read-out: Kochia plant response rating; for pest or weed control at 500 g/ha: 500 g ai/ha, Preemergence, visual injury vs untreated controls after approximately 10 d, read-out: Kochia plant response rating (0 to 100 scale where 0 is no effect and 100 is complete control)
How it was run: as §2

[7] = test system: giant foxtail (Setaria faberii); test: Test A preemergence; conditions: Setaria faberi, pre-emergence, 240 h; for pest or weed control at 125 g/ha: 125 g ai/ha, preemergence, 0 to 100 scale where 0 is no effect and 100 is complete control, read-out: Foxtail, Giant plant response rating; for pest or weed control at 500 g/ha: 500 g ai/ha, Preemergence, visual injury vs untreated controls after approximately 10 d, read-out: Foxtail, Giant plant response rating (0 to 100 scale where 0 is no effect and 100 is complete control)
How it was run: as §2

[8] = test system: ragweed (common ragweed, Ambrosia elatior); test: Test A preemergence; conditions: Ambrosia artemisiifolia, pre-emergence, 240 h; for pest or weed control at 125 g/ha: 125 g ai/ha, preemergence, 0 to 100 scale where 0 is no effect and 100 is complete control, read-out: Ragweed plant response rating; for pest or weed control at 500 g/ha: 500 g ai/ha, Preemergence, visual injury vs untreated controls after approximately 10 d, read-out: Ragweed plant response rating (0 to 100 scale where 0 is no effect and 100 is complete control)
How it was run: as §2

[9] = test system: ryegrass, Italian (Italian ryegrass, Lolium multiflorum); test: Test A preemergence; conditions: Lolium multiflorum, pre-emergence, 240 h; for pest or weed control at 125 g/ha: 125 g ai/ha, preemergence, 0 to 100 scale where 0 is no effect and 100 is complete control, read-out: Ryegrass, Italian plant response rating; for pest or weed control at 500 g/ha: 500 g ai/ha, Preemergence, visual injury vs untreated controls after approximately 10 d, read-out: Ryegrass, Italian plant response rating (0 to 100 scale where 0 is no effect and 100 is complete control)
How it was run: as §2

[10] = test system: pigweed (Amaranthus retroflexus); test: Test A preemergence; conditions: Amaranthus retroflexus, pre-emergence, 240 h; for pest or weed control at 125 g/ha: 125 g ai/ha, preemergence, 0 to 100 scale where 0 is no effect and 100 is complete control, read-out: Pigweed plant response rating; for pest or weed control at 500 g/ha: 500 g ai/ha, Preemergence, visual injury vs untreated controls after approximately 10 d, read-out: Pigweed plant response rating (0 to 100 scale where 0 is no effect and 100 is complete control)
[11] = test system: barnyardgrass (Echinochloa crus-galli); test: Test A postemergence; conditions: Echinochloa crus-galli, post-emergence, 240 h, 125 g ai/ha, postemergence, visual injury rating after approximately 10 d; read-out: Barnyardgrass plant response rating (0 to 100 scale, 0 no effect, 100 complete control)
How it was run: as §2

[12] = test system: Kochia (Kochia scoparia); test: Test A postemergence; conditions: Bassia scoparia, post-emergence, 240 h, 125 g ai/ha, postemergence, visual injury rating after approximately 10 d; read-out: Kochia plant response rating (0 to 100 scale, 0 no effect, 100 complete control)
How it was run: as §2

[13] = test system: blackgrass (Alopecurus myosuroides); test: Test A postemergence; conditions: Alopecurus myosuroides, post-emergence, 240 h, 125 g ai/ha, postemergence, visual injury rating after approximately 10 d; read-out: Blackgrass plant response rating (0 to 100 scale, 0 no effect, 100 complete control)
How it was run: as §2

[14] = test system: pigweed (Amaranthus retroflexus); test: Test A postemergence; conditions: Amaranthus retroflexus, post-emergence, 240 h, 125 g ai/ha, postemergence, visual injury rating after approximately 10 d; read-out: Pigweed plant response rating (0 to 100 scale, 0 no effect, 100 complete control)
How it was run: as §2

| Structure (SMILES) | pest or weed control at 250 g/ha [1] [%] | pest or weed control at 250 g/ha [2] [%] | pest or weed control at 250 g/ha [3] [%] | pest or weed control at 250 g/ha [4] [%] | pest or weed control at 125 g/ha [5] [%] | pest or weed control at 500 g/ha [5] [%] | pest or weed control at 125 g/ha [6] [%] | pest or weed control at 500 g/ha [6] [%] | pest or weed control at 125 g/ha [7] [%] | pest or weed control at 500 g/ha [7] [%] | pest or weed control at 125 g/ha [8] [%] | pest or weed control at 500 g/ha [8] [%] | pest or weed control at 125 g/ha [9] [%] | pest or weed control at 500 g/ha [9] [%] | pest or weed control at 125 g/ha [10] [%] | pest or weed control at 500 g/ha [10] [%] | pest or weed control at 125 g/ha [11] [%] | pest or weed control at 125 g/ha [12] [%] | pest or weed control at 125 g/ha [13] [%] | pest or weed control at 125 g/ha [14] [%] |
| --- | --- | --- | --- | --- | --- | --- | --- | --- | --- | --- | --- | --- | --- | --- | --- | --- | --- | --- | --- | --- |
| Cc1cc(F)cc([C@H]2CNC(=O)[C@@H]2C(=O)Nc2ccc(F)c(F)c2F)c1 [Compound 848] | 0 | 60 | 0 | 100 | 90 | 90 | 40 | 70 | 90 | 90 | 0 | 30 | 40 | 50 | 40 | 50 | 90 | 0 | 0 | 0 |
| Cc1cc(F)cc([C@H]2CN(C)C(=O)[C@@H]2C(=O)Nc2cccc(F)c2F)c1 [Compound 849] | 15 | 75 | 0 | 100 | 90 | 90 | 80 | 80 | 90 | 90 | 80 | 90 | 80 | 90 | 40 | 50 | 90 | 0 | 30 | 0 |
| Cc1cc(F)cc([C@H]2CN(C)C(=O)[C@@H]2C(=O)Nc2ccccc2F)c1 [Compound 850] | 0 | 70 | 0 | 90 | 90 | 90 | 30 | 70 | 90 | 90 | 0 | 0 | 70 | 70 | 20 | 30 | 90 | 0 | 0 | 0 |
| COc1ccc([C@H]2CN(C)C(=O)[C@@H]2C(=O)Nc2ccccc2F)cc1OC [Compound 852] | 0 | 40 | 0 | 40 | 90 | 90 | 0 | 20 | 90 | 90 | 0 | 0 | 0 | 30 | 20 | 40 | 90 | 0 | 0 | 0 |
| COc1ccc([C@H]2CN(C)C(=O)[C@@H]2C(=O)Nc2cccc(F)c2F)cc1OC [Compound 853] | 20 | 70 | 0 | 40 | 90 | 100 | 40 | 40 | 90 | 100 | 0 | 20 | 0 | 60 | 40 | 40 | 90 | 0 | 20 | 0 |
| COc1ccc([C@H]2CN(C)C(=O)[C@@H]2C(=O)Nc2ccccc2SC)cc1OC [Compound 854] | 0 | 0 | 0 | 0 | 0 | 80 | 0 | 0 | 50 | 80 | 0 | 0 | 0 | 0 | 0 | 0 | 0 | 0 | 0 | 0 |
| COc1cc([C@H]2CN(C)C(=O)[C@@H]2C(=O)Nc2cccc(F)c2F)cc(C(F)(F)F)c1 [Compound 856] | 0 | 50 | 0 | 75 | 90 | 90 | 40 | 50 | 90 | 90 | 0 | 20 | 50 | 80 | 20 | 50 | 80 | 30 | 60 | 20 |
